Earlier results in patent US6218375A, “Complex of ras-farnesyltransferase inhibitor and sulfobutylether-7-β-cyclodextrin or 2-hydroxypropyl-β-cyclodextrin and method” (priority 2000, dated 2001).

Assays:
[1] = by β-cyclodextrin
[2] = by cyclodextrins
[3] = complexes with cyclodextrin derivatives, sublingual or buccal route

| SMILES | stabilization [1] | water-solubility [2] | elimination [3] | transfer into the systemic circulation [3] |
| --- | --- | --- | --- | --- |
| CCN(CC)CCOC(=O)c1ccc(N)cc1 [procaine] | increases stabilization | increase water-solubility | – | – |
| CCN(CC)CCOC(=O)C(c1ccccc1)c1ccccc1 [adipherine] | – | increase water-solubility | – | – |
| C[C@]12CC[C@@H]3c4ccc(O)cc4CC[C@H]3[C@@H]1CC[C@@H]2O [estradiol] | – | – | only gradual elimination | effective transfer of these hormones into the systemic circulation |
| CCOC(=O)c1ccc(N)cc1 [benzocaine] | increases stabilization | increase water-solubility | – | – |
| CC(=O)Oc1ccccc1C(=O)O [aspirin] | – | increase water-solubility | – | – |
| CCCCC/C=C\C/C=C\CCCCCCCC(=O)O [linoleic acid] | increases stabilization | – | – | – |
| CC(=O)[C@H]1CC[C@H]2[C@@H]3CCC4=CC(=O)CC[C@]4(C)[C@H]3CC[C@]12C [progesterone] | – | – | only gradual elimination | effective transfer of these hormones into the systemic circulation |
| O=C(O)c1ccccc1O [salicyclic acid] | increases stabilization | – | – | – |
| COc1ccc2c(c1)c(CC(=O)O)c(C)n2C(=O)c1ccc(Cl)cc1 [indomethacin] | increases stabilization | – | – | – |
| O=[N+]([O-])OCC(CO[N+](=O)[O-])O[N+](=O)[O-] [nitroglycerin] | increases stabilization | – | – | – |
| C=C1CC[C@H](O)C/C1=C/C=C1\CCC[C@]2(C)[C@@H]([C@H](C)CCCC(C)C)CC[C@@H]12 [vitamin D3] | – | increase water-solubility | – | – |
| C=CCS[S+]([O-])CC=C (centres unmarked) [allicin] | increases stabilization | – | – | – |
| CC(C)C12C=CC(C)(CC1)OO2 (centres unmarked) [ascaridole] | increases stabilization | – | – | – |
| C[C@]12CC[C@H]3[C@@H](CCC4=CC(=O)CC[C@@]43C)[C@@H]1CC[C@@H]2O [testosterone] | – | increase water-solubility | only gradual elimination | effective transfer of these hormones into the systemic circulation |
